Test results: PMC8153708, “Inhibition of soluble epoxide hydrolase by phytochemical constituents of the root bark of Ulmus davidiana var. japonica” (Journal of Enzyme Inhibition and Medicinal Chemistry, 2021)

Biological target: T1, soluble epoxide hydrolase (sEH) (Homo sapiens, UniProt P34913)
T1 construct: purchased Cayman 10011669
T1 sequence (P34913 1-555): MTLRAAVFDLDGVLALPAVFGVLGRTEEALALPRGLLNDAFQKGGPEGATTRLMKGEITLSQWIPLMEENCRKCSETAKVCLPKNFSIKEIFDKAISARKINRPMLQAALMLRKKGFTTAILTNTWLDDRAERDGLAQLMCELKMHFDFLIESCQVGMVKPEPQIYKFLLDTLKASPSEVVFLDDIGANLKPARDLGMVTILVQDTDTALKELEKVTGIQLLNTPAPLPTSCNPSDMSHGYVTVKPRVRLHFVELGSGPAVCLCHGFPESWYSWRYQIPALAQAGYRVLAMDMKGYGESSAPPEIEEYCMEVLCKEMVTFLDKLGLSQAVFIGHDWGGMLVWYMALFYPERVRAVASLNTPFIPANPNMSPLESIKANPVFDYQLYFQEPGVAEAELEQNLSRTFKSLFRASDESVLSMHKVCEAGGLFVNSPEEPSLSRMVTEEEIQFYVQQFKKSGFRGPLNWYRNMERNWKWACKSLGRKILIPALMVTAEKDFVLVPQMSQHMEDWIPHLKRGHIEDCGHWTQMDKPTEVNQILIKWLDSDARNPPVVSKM
Assay: sEH inhibition assay (PHOME fluorescent substrate)
Type: biochemical
Conditions: 37 °C, mean ± SEM; for inhibition at 100 µM: 100 μM compound, after 40 min, read-out: Inhibition of compounds on sEH, 100 μM (%); for IC50: tested three times, read-out: Inhibition of compounds on sEH, IC50
Description: The sEH assay was performed as described previously, with minor modifications. For determining inhibitory activity, 130 µL of ∼83 µg/mL sEH in 25 mM bis-Tris–HCl buffer (pH 7.0) containing 0.1% BSA was added to either 20 µL of inhibitor dissolved in MeOH, or MeOH. Next, 50 µL of the 10 µM substrate (PHOME) was added to each mixture and incubated at 37 °C to allow for sEH hydrolysis.
Inhibitory activity was calculated using the following equations: (1) Inhibitoryactivityrate(%)=[(ΔC–ΔI)/ΔC]×100 where ΔC and ΔI are the intensity of the control and inhibitor, respectively, after 40 min. (2) y=y0+(a×x/b+x) where y0 is the minimum value of the y-axis, a is the difference between the maximum and minimum values, and b is the x value at 50% of the a value.
The results were analysed using Sigma Plot (Systat Software Inc., San Jose, CS).

| SMILES | inhibition at 100 µM [%] | IC50 [µM] |
| --- | --- | --- |
| O=C1CC(c2ccccc2)Oc2cc(O)c(C3OC(CO)C(O)C(O)C3O)c(O)c21 [Compound 2, pinocembrin 6-C-β-D-glucoside] | 91.8 ± 4.5 | 11.4 ± 2.3 |
| OCc1ccc(O)cn1 [Compound 4, 6-hydroxymethyl-3-pyridinol] | 65.9 ± 0.8 | 26.3 ± 4.5 |
| O=C(O)c1ccc(O)c(O)c1 [Compound 9, protocatechuic acid] | < 38 | – |
| COc1cc(C2Oc3c(OC)cc(CCCO)cc3C2CO)ccc1OC1OC(C)C(O)C(O)C1O (centres unmarked) [Compound 7, icariside E4] | 55.6 ± 0.7 | 23 ± 0.7 |
| COc1cc(C2Oc3c(OC)cc(CCCO)cc3C2CO[C@@H]2OC[C@@H](O)[C@H](O)[C@H]2O)ccc1O (stereo partly drawn) [Compound 8, 2,3-dihydro-2–(4-hydroxy-3-methoxyphenyl)-5–(3-hydroxypropyl)-7-methoxy-3-benzofuranylmethyl β-D-xylopyranoside] | 64.8 ± 1.4 | 36.9 ± 2.6 |

Now from value to compound:

| inhibition at 100 µM [%] | IC50 [µM] | SMILES |
| --- | --- | --- |
| 59.4 ± 2.5 | 14.5 ± 0.5 | O=C1OC2Cc3c(O)cc(OC4OCC(O)(CO)C4O)cc3OC2c2ccc(O)c(O)c21 [Compound 1, (6aS,12aR)-3,4,8-trihydroxy-6a-7-dihydroisochromeno[4,3-b]chromen-5(12aH)-one-10-O-β-apiofuranoside] |
| < 38 | – | O=C1CC(c2ccc(O)cc2)Oc2cc(O)c(C3OC(CO)C(O)C(O)C3O)c(O)c21 [Compound 3, naringenin-6-C-β-D-glucopyranoside] |
| < 38 | – | Oc1cc(O)c2c(c1)O[C@H](c1ccc(O)c(O)c1)[C@@H](O)C2 [Compound 5, (+)-catechin] |
| 69.8 ± 2.2 | 16 ± 3.2 | OCC1(O)COC(Oc2cc(O)c3c(c2)OC(c2ccc(O)c(O)c2)C(O)C3)C1O (stereo not drawn) [Compound 6, catechin-7-O-β-apiofuranoside] |
| 70.7 ± 0.4 | 16.1 ± 3.2 | O=C1c2c(O)cc(O)cc2OC(c2cc(O)cc(O)c2)C1O (centres unmarked) [Compound 10, 3,5,7-trihydroxy-2–(3,5-dihydroxyphenyl) chroman-4-one] |
